Results reported in patent US9399653B2, “Methods and systems for preparing irreversible inhibitors of protein tyrosine phosphatases” (The Governors of the University of Alberta, priority 2010, dated 2016).
Values joined by “and” are separate entries in the source; they are usually repeats but may differ in a detail not shown here. Equal values may be shown once.

Tests used:
[1] = target: T1, human CD45-cytoplasmic domain (Homo sapiens, UniProt P08575); experiment: Phosphatase enzyme inhibition, CD45, fluorogenic substrate DiFMUP; assay type: biochemical; conditions: for inhibition of CD45 (in words): DiFMUP substrate
T1 construct: human CD45-cytoplasmic domain (Enzo Life Science); purchased Enzo Life Science
T1 sequence (P08575 599-1306 limits assumed): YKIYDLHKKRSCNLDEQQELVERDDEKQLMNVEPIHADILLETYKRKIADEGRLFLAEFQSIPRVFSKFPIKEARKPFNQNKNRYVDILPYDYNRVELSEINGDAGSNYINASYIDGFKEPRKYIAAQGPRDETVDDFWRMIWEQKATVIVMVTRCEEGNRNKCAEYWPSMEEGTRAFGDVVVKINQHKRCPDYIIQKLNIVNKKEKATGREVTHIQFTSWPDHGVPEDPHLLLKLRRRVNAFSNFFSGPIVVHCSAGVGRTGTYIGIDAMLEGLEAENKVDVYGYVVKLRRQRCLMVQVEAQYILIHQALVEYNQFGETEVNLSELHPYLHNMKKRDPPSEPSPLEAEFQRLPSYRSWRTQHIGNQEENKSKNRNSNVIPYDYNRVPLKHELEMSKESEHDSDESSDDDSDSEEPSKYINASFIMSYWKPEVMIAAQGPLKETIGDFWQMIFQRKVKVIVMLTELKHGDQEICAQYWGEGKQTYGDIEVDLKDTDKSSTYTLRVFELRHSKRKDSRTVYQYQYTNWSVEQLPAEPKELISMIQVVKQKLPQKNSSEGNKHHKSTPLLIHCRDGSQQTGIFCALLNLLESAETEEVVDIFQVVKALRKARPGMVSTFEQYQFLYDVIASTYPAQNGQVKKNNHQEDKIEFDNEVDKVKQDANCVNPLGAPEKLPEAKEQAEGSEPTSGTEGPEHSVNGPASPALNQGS
Experimental: Enzyme assays were conducted using human CD45-cytoplasmic domain (Enzo Life Science; diluted to 4 mU/μL in 50 mM HEPES, pH 7.2, 1 mM EDTA, and 0.1% nonidet P-40) (FIG. 6-8), or bovine alkaline phosphatase (New England Bio Labs; diluted to 4 mU/μL in 100 mM NaCl, 50 mM tris-HCl, 10 mM MgCl2 1 mM dithiothreitol, pH 7.9) (FIG. 2-5). Enzyme activity was detected with a fluorogenic substrate (6,8-difluoro-4-methylumbelliferyl phosphate; DiFMUP) (Invitrogen). Assays were performed in black 96-well plates and read in a Spectra Max M2 plate reader (Molecular Devices). For CD45 assays, substrate concentration was between 1 μM to 50 μM, for alkaline phosphatase substrate concentration was between 10 nM to 10 μM. Stock solutions of inhibitors (100 mM of compound 7 in deionized water; and 10 mM of compound 17 in 50% deionized water and 50% DMSO) were prepared and stored at −20° C. Final solutions in microplate wells contained a total volume of 100 μL consisting of 2 μL of diluted enzyme, inhibitor, and DiFMUP substrate diluted to 100 μL in the appropriate buffer. All wells were incubated for 10 min at 37° C. in the plate reader prior to the addition of DiFMUP. After incubation, substrate was added and the plate was read at an excitation maximum of 358 nm and an emission maximum of 450 nm every 30 seconds for 125 min (CD45) or 65 min (alkaline phosphatase).
The Km for DiFMUP with each enzyme was first determined, and the experiment was then repeated in the presence of the inhibitor at a concentration close to an initially estimated K, (TABLE 1). […] Previous reports of PTP inhibition using BBP analogs observed irreversible inhibition of the enzyme.(22) Evaluation of the kinetic data described above using reciprocal plots (FIG. 9-12) was not consistent with pure competitive inhibition of CD45, but this analysis is not conclusive on its own.
(§1) The Kitz-Wilson analysis estimated the rate of irreversible inhibition (k3) of CD45 at 0.05 min^−1 for both compounds. To provide additional support for the expected mechanism of inhibition, we measured CD45 activity for an enzyme sample which was pre-incubated with the inhibitor and compared it to an enzyme sample that was only incubated with the inhibitor for a short period.

[2] = target: T2, CD45 (Homo sapiens, UniProt P08575); experiment: Time-dependent inhibition of CD45 (pre-incubation with inhibitor); assay type: biochemical; conditions: compound at 25 μM, enzyme incubated 13 h (FIG. 13)
T2 construct: Enzyme assays were conducted using human CD45-cytoplasmic domain (Enzo Life Science); purchased Enzo Life Science
T2 sequence (P08575 599-1306 limits assumed): T1 sequence (P08575 599-1306 limits assumed)
Experimental: FIG. 13 is a plot of time-dependent inhibition of CD45 enzyme activity in the presence of compound 1 at a concentration of 25 μM. The enzyme was incubated for 13 h, either alone or in the presence of compound 1.
Time-Dependent Inhibition of CD45 by Compound 1
as §1

Molecule | inhibition of CD45 (in words) [1] | KI ([1]; Kitz-Wilson analysis) | Ki ([1]; Kitz-Wilson analysis) | k3, rate of enzyme inactivation ([1]; Kitz-Wilson analysis) | potency relative to BrPmp alone ([1]; from Kitz-Wilson KI values (Example 8)) | potency relative to BrPmp alone ([1]; initial kinetic data (Example 7)) | CD45 activity after pre-incubation with inhibitor [2]
O=P(O)(O)C(Br)c1ccccc1 (centres unmarked) [compound 7, [bromo(phenyl)methyl]phosphonic acid, reference compound] | failure to alter the rate of reaction | did not give a saturating curve | – | – | – | – | –
CC(C)C[C@H](NC(=O)[C@H](Cc1ccc(C(Br)P(=O)(O)O)cc1)NC(=O)[C@@H](N)CC(=O)O)C(=O)O (some centres unmarked) [compound 17, Asp-BrPmp-Leu] | significant inhibition of the enzyme at low micromolar concentrations | – | 16 ± 4 µM | 0.05 min⁻¹ and 0.048 ± 0.003 min⁻¹ | approximately 4 fold | approximately 7 fold | –
L-BrPmp-OH [compound 1] | – | – | – | – | – | – | at long incubation times completely inactivated the enzyme
